Calls of active or inactive are those of the source. No cut-off for these calls is given here.
How the values were obtained:
[1] = target: T1, C-X-C chemokine receptor type 2 (Homo sapiens, UniProt P25025); experiment: Antagonist activity at human recombinant Gal4-VP16 fused-CXCR2 assessed as inhibition of CXCL1-mediated lactamase reporter gene expression after overnight incubation
T1 sequence (P25025 whole entry): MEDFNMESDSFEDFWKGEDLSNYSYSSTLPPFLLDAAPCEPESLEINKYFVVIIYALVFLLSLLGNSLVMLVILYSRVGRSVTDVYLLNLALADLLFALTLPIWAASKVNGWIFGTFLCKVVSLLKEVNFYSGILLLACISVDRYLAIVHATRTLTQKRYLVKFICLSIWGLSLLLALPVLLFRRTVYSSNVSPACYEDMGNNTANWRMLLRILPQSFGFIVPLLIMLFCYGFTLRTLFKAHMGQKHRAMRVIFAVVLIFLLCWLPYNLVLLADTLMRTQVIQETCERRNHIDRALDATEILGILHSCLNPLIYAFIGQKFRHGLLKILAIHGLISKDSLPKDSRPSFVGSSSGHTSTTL

Brain [2] = experiment: AUC (0 to 4 hrs) in C57BL/6 mouse brain at 2 mg/kg, ip by UPLC/MS/MS analysis; format: ADME, organism-based; parameters: dose 2 mg/kg, time < 4 hr, route intraperitoneal; conditions: in vivo
[3] = Ratio of drug level in C57BL/6 mouse brain to blood at 2 mg/kg, ip; format: ADME, organism-based; conditions: for Kp: C57BL/6, mouse, brain/blood
[4] = (§1) AUC (0 to 4 hrs) in C57BL/6 mouse blood at 2 mg/kg, ip by UPLC/MS/MS analysis; format: ADME, organism-based; parameters: dose 2 mg/kg, time < 4 hr, route intraperitoneal; conditions: C57BL/6, mouse, blood
[5] = Oral bioavailability in C57BL/6 mouse at 2 mg/kg; format: ADME, organism-based; conditions: in vivo
[6] = Clearance in C57BL/6 mouse blood at 1 mg/kg, iv; format: ADME, organism-based
[7] = Half life in C57BL/6 mouse at 1 mg/kg, iv; format: ADME, organism-based; conditions: in vivo
Cytochrome P450 2C19 = Cytochrome P450 2C19 (Homo sapiens, UniProt P33261); experiment: Inhibition of CYP2C19 (unknown origin); format: ADME
Cytochrome P450 2C9 = Cytochrome P450 2C9 (Homo sapiens, UniProt P11712)
Description: Inhibition of CYP2C9 (unknown origin)

[8] = Cmax in C57BL/6 mouse at 2 mg/kg, po; format: ADME, organism-based; parameters: dose 2 mg/kg, route oral; conditions: in vivo
[9] = Stability of the compound assessed as GSH conjugate formation; format: physicochemical
[10] = Fraction unbound in human plasma; format: ADME, cell-free
Cytochrome P450 2D6 = Cytochrome P450 2D6 (Homo sapiens, UniProt P10635); experiment: Inhibition of CYP2D6 (unknown origin); format: ADME
Cytochrome P450 3A4 = Cytochrome P450 3A4 (Homo sapiens, UniProt P08684); experiment: Inhibition of CYP3A4 (unknown origin); format: ADME
Mus musculus [11] = experiment: Dose normalized AUC (0 to infinity) in C57BL/6 mouse at 2 mg/kg, po; format: ADME, organism-based; conditions: in vivo
[12] = Volume of distribution at steady state in C57BL/6 mouse at 1 mg/kg, iv; format: ADME, organism-based; conditions: in vivo, read-out: Vdss
Cytochrome P450 1A2 = target: T2, Cytochrome P450 1A2 (Homo sapiens, UniProt P05177); experiment: Inhibition of CYP1A2 (unknown origin); format: ADME
T2 sequence (P05177 whole entry): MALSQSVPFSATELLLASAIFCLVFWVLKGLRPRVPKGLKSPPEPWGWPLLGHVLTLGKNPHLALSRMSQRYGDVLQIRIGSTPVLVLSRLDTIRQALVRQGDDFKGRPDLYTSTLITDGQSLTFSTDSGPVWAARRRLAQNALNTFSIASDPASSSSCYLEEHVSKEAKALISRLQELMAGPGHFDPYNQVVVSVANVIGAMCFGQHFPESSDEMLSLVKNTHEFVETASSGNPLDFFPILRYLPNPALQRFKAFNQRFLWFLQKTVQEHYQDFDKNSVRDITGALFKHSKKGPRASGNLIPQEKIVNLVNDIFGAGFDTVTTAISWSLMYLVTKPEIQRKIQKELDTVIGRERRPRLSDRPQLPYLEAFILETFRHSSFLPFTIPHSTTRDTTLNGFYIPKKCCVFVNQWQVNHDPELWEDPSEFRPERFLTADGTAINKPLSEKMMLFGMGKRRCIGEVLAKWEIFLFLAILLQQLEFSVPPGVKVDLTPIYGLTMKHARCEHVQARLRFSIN

[13] = AUC (0 to 4 hrs) in C57BL/6 mouse blood at 3.4 mg/kg, po by UPLC/MS/MS analysis; format: ADME, organism-based; parameters: time < 4 hr, dose 3.4 mg/kg, route oral
Brain [14] = experiment: AUC (0 to 4 hrs) in C57BL/6 mouse brain at 3.4 mg/kg, po by UPLC/MS/MS analysis; format: ADME, organism-based; parameters: dose 3.4 mg/kg, time < 4 hr, route oral; conditions: in vivo
[15] = Ratio of drug level in C57BL/6 mouse brain to blood at 3.4 mg/kg, po; format: ADME, organism-based
Mus musculus [16] = experiment: Induction of remyelination in corpus callosum in cuprizone-induced C57BL/6 mouse demyelination model at 100 mg/kg, po bid for 9 consecutive days by black-gold myelin staining based microscopy; format: functional, organism-based
Blood = experiment: as §1; format: ADME, organism-based; parameters: dose 2 mg/kg, time < 4 hr, route intraperitoneal; conditions: mouse, in vivo, 4 h, BLD = below limit of detection

Cytochrome P450 2D6, sequence (P10635 whole entry): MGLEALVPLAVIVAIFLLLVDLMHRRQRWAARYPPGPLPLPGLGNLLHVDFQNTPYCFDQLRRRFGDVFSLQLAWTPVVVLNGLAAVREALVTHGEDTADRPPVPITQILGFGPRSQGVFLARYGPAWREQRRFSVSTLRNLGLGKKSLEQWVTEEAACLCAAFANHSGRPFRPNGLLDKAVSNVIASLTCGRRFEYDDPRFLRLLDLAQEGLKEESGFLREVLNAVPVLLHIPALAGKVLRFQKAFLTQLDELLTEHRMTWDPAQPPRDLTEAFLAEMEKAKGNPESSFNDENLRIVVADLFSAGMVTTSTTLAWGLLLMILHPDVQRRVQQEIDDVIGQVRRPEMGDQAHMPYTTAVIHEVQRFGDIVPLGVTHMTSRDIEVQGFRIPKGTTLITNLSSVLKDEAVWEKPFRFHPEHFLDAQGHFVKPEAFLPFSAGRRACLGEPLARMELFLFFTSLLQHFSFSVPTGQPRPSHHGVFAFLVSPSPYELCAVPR
Cytochrome P450 2C19, sequence (P33261 whole entry): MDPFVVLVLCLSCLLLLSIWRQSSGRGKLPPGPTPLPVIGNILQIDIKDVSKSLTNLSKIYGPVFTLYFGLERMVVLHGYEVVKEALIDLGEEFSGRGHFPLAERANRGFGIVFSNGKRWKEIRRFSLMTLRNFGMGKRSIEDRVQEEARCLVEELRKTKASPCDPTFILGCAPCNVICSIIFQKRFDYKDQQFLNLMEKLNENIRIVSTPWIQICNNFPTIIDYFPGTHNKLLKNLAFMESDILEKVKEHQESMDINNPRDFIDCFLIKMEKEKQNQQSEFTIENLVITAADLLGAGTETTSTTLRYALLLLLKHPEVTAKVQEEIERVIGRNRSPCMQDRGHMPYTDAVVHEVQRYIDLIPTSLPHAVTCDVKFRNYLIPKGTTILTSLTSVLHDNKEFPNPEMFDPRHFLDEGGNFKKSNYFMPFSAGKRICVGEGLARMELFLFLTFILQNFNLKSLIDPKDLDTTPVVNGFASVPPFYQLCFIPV
Cytochrome P450 2C9, sequence (P11712 whole entry): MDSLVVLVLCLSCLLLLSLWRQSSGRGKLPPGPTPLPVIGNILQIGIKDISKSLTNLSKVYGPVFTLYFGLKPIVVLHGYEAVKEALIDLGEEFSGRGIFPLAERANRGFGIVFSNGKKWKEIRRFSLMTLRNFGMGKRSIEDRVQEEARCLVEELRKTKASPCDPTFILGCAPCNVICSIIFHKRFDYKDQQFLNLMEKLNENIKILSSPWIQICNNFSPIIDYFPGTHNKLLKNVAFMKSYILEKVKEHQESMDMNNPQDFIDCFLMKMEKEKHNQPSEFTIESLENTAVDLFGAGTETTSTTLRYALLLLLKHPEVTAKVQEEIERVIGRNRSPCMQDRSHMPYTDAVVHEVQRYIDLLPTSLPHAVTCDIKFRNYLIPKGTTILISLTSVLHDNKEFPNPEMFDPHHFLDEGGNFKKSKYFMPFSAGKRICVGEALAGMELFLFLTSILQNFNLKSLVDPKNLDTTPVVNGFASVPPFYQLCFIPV
Cytochrome P450 3A4, sequence (P08684 whole entry): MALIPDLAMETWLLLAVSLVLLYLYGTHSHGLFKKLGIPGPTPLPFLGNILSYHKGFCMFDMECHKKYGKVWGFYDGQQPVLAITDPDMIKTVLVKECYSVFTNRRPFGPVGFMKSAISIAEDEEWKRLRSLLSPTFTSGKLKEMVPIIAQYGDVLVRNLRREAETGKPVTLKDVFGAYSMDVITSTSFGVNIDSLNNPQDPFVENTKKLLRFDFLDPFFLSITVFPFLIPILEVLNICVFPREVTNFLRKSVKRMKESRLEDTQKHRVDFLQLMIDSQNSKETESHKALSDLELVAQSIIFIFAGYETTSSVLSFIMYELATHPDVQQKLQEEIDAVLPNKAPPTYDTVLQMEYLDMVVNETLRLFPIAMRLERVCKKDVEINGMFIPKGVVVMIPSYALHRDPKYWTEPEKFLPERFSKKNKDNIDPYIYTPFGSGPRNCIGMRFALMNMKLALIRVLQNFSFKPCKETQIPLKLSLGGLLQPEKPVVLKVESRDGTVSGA

Structure (SMILES)	IC50 [1]	AUC (Brain [2])	Kp [3]	AUC(0-t) at 4 h [4]	further results
CN1CCC2(CC1)CC(S(=O)(=O)c1c(Cl)ccc(NC(=O)Nc3cccc(F)c3Cl)c1O)C2	2 nM	111 ng·h/g	0.08	1390 ng·h/mL	
CCS(=O)(=O)c1c(Cl)ccc(NC(=O)Nc2cccc(Cl)c2Cl)c1O	0.501 nM	73.9 ng·h/g	0.29	256 ng·h/mL	
CN1CC[C@H](S(=O)(=O)c2c(Cl)ccc(NC(=O)Nc3cccc(Cl)c3Cl)c2O)C1	1.26 nM	164 ng·h/g	0.28	577 ng·h/mL	bioavailability [5]: 26%; clearance [6]: 15.4 mL/min/kg; half-life [7]: 1.9 h; IC50 (Cytochrome P450 2C19): > 10000 nM; IC50 (Cytochrome P450 2C9): > 10000 nM; Cmax [8]: 216 ng/mL; Stability [9]: Stable; Fu [10]: 0.021%; IC50 (Cytochrome P450 2D6): > 10000 nM; IC50 (Cytochrome P450 3A4): > 10000 nM; AUC/dose (Mus musculus [11]): 271 ng·h/mL/mg/kg; Vd [12]: 1.72 L/kg; IC50 (Cytochrome P450 1A2): > 10000 nM
O=C(Nc1ccc(Cl)c(S(=O)(=O)N2CCNCC2)c1O)Nc1cccc(Cl)c1Cl	0.631 nM				AUC(0-t) at 4 h [13]: 855 ng·h/mL; AUC (Brain [14]): 143 ng·h/g; Kp [15]: 0.17
CC(C)S(=O)(=O)c1c(Cl)ccc(NC(=O)Nc2cccc(F)c2Cl)c1O	0.501 nM	95 ng·h/g	0.48	198 ng·h/mL	
CCN1CCN(S(=O)(=O)c2c(Cl)ccc(NC(=O)Nc3cccc(F)c3Cl)c2O)CC1	1 nM	128 ng·h/g	0.67	189 ng·h/mL	
C[C@@H]1CN(S(=O)(=O)c2c(Cl)ccc(NC(=O)Nc3cccc(Cl)c3Cl)c2O)C[C@H](C)O1	10 nM	73 ng·h/g	0.14	519 ng·h/mL	
CN1CCC(S(=O)(=O)c2c(Cl)ccc(NC(=O)Nc3cccc(F)c3Cl)c2O)CC1	0.501 nM	335 ng·h/g		735 ng·h/mL	bioavailability [5]: 41%; clearance [6]: 16.9 mL/min/kg; half-life [7]: 2.8 h; Cmax [8]: 157 ng/mL; Stability [9]: Stable; Fu [10]: 0.13%; Activity (Mus musculus [16]): Active; AUC/dose (Mus musculus [11]): 354 ng·h/mL/mg/kg; Vd [12]: 3.17 L/kg
CN1CC2(CC(S(=O)(=O)c3c(Cl)ccc(NC(=O)Nc4cccc(F)c4Cl)c3O)C2)C1	0.398 nM	22.9 ng·h/g	0.02	1050 ng·h/mL	
CN1CCC[C@H](S(=O)(=O)c2c(Cl)ccc(NC(=O)Nc3cccc(F)c3Cl)c2O)CC1	0.501 nM	99.1 ng·h/g	0.21	463 ng·h/mL	
O=C(Nc1ccc(Cl)c(C(=O)N2CCCCC2)c1O)Nc1cccc(F)c1Cl	0.501 nM				AUC (Brain [2]; BLD = below limit of detection): BLD; Ratio ([3]; mouse, brain, BLD = below limit of detection): BLD; AUC (Blood): BLD
CC(C)N1CCN(S(=O)(=O)c2c(Cl)ccc(NC(=O)Nc3cccc(F)c3Cl)c2O)CC1	1.58 nM	99 ng·h/g	1.87	52.9 ng·h/mL	
CC(C)(C)S(=O)(=O)c1c(Cl)ccc(NC(=O)Nc2cccc(F)c2Cl)c1O	0.501 nM	369 ng·h/g	1.04	355 ng·h/mL	
CN1CCC2(CCC(S(=O)(=O)c3c(Cl)ccc(NC(=O)Nc4cccc(F)c4Cl)c3O)CC2)CC1	0.398 nM	69.3 ng·h/g	0.05	1480 ng·h/mL	

— ChEMBL document CHEMBL3817840, “Discovery of CNS Penetrant CXCR2 Antagonists for the Potential Treatment of CNS Demyelinating Disorders” (ACS Med Chem Lett, 2016)
